“Also recorded” adds a separate entry of the source. Where two headings read alike, the source gives them in different places.
Assays:
[1] = test system: DPDE4 (plasmid pADH72, cDNA truncated at 5' end); conditions: 1 μM 3H cAMP, SD in parentheses
Method: (§1) Values were determined in duplicate from three separate cell pellets. Each value for the Km represents the average of six determinations, with the standard deviation shown in parentheses. The specific activity at Vmax is reported as the range of determinations for the six experiments.
(§2) The IC50 was determined by fitting the data to either a four-parameter model, or a two-parameter model, as described above. Wherever possible, the four-parameter model was used, because it could provide an accurate fit to inhibitor curves that spanned a wide range of concentrations. Data sets that could not be fitted to the four-parameter model were fitted to the two-parameter model.

[2] = molecular target: T1, dnc (plasmid pADDROSC, full-length) (Drosophila melanogaster, UniProt P12252); test: biochemical
T1 sequence (P12252 1-701 isoform P12252-3): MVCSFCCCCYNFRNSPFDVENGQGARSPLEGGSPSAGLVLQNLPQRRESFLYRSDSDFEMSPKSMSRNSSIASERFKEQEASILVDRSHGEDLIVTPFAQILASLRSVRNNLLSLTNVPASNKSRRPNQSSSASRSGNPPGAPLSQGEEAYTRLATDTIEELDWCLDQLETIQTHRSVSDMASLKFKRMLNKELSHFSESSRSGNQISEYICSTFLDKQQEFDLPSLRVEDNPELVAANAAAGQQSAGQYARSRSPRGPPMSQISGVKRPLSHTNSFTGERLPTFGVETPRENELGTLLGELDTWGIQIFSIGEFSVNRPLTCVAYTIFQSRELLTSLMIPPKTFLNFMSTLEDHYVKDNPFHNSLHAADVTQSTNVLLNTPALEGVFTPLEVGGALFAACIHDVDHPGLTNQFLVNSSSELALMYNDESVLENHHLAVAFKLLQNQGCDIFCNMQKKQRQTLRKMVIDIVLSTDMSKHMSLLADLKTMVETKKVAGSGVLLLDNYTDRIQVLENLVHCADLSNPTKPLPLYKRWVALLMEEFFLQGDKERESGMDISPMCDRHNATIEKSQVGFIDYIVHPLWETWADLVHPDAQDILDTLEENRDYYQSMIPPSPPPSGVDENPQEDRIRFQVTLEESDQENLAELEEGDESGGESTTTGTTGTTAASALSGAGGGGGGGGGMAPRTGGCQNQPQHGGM
Method: as §1, §2

[3] = test system: human dunce-like PDEs (three human clones); test: Inhibition and kinetics of the human dunce-like PDEs; type: biochemical; conditions: for IC50s fold higher than for their specific PDE classes: compared with literature values for the inhibitors' own PDE classes; for IC50: range over the human clones, read-out: IC50s for the human clones
Method: as §1, §2

[4] = test system: dnc (plasmid pADDROSF, cDNA truncated at 5' end); test: Hydrolysis of 3H cAMP by yeast extracts (Dunce-like PDE clones); type: biochemical, Drosophila; conditions: 1 μM 3H cAMP, SD in parentheses
Method: as §1, §2

DPDE4 (plasmid pADH72C) [5] = molecular target: T2, DPDE4 (plasmid pADH72C) (Homo sapiens, UniProt Q07343); conditions: 1 μM 3H cAMP, SD in parentheses
Method: (§3) The IC50 was determined by fitting the data to either a four-parameter model, or a two-parameter model, as described above. Wherever possible, the four-parameter model was used, because it could provide an accurate fit to inhibitor curves that spanned a wide range of concentrations. Data sets that could not be fitted to the four-parameter model were fitted to the two-parameter model. […] The values in parentheses represent the standard deviation of the mean for each experiment.

[6] = test system: DPDE2 (plasmid pADH46R, cDNA truncated at 5' end); conditions: 1 μM 3H cAMP, SD in parentheses
Method: as §1, §2

[7] = test system: DPDE3 (plasmid pADH43, cDNA truncated at 5' end); conditions: 1 μM 3H cAMP, SD in parentheses
Method: as §1, §2

[8] = test system: Drosophila dnc encoded PDEs; test: Inhibition and kinetics of dnc encoded PDEs; type: biochemical; conditions: dnc gene product
Method: as §3

yeast PDE2 = yeast PDE2 (Saccharomyces cerevisiae, UniProt P06776); test: Inhibition of phosphodiesterases by chemicals, cell free extracts of 10DAB yeast
Method: (§4) To test the efficiency of known inhibitory compounds, cell free extracts were made. Yeast cells deficient in endogenous phosphodiesterase (10DAB), and expressing the rat DPD or yeast PDE2 genes from the described expression vector, were used. One liter cultures were harvested, washed in buffer C (20 mM MES(pH 6.2)/0.1 mM MgCl2 /0. 1 mM EGTA/1 mM 2-mercaptoethanol), resuspended in buffer C containing 1.5 mM phenylmethylsulfonyl fluoride (PMSF), and disrupted in a French press at 4° C. Cell extracts were clarified at 100×g for 10 minutes and at 18000×g for 90 minutes.

DPDE4 (plasmid pADH72C) [9] = molecular target: T2, DPDE4 (plasmid pADH72C); test: biochemical
Method: as §3

[10] = molecular target: T3, rat DPD phosphodiesterase (Rattus norvegicus, UniProt P14646); test: Inhibition of phosphodiesterases by chemicals, cell free extracts of 10DAB yeast; type: biochemical
T3 construct: A large open reading frame of 562 codons was found; The first ATG appears at codon 46; made in house; host or cells: S. cerevisiae 10DAB (pde1-, pde2-), crude extract, vector pADNS
T3 sequence (P14646 220-736): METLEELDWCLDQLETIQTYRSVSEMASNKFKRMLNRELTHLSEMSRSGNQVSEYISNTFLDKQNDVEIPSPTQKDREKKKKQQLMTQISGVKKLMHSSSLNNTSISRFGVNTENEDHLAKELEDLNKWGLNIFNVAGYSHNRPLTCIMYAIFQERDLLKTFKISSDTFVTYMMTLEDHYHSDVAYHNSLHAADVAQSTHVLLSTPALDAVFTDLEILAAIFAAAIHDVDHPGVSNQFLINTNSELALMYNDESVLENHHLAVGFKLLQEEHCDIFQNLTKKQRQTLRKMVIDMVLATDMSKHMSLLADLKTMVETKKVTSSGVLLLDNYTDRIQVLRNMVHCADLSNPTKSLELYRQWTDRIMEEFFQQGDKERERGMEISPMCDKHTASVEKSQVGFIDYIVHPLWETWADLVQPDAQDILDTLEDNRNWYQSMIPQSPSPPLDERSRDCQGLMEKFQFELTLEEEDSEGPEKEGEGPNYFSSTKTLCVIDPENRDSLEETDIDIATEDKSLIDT
Method: as §4

[11] = molecular target: pJC44x human cyclic AMP phosphodiesterase; test: Phosphodiesterase activity of 10DAB yeast extract expressing human cDNA (kinetics, inhibitor sensitivity); conditions: read-out: EC50 (inhibitor concentration at 50% enzyme velocity); 1.0 μM cAMP
[12] = test system: yeast strain 10DAB transformed with pAD72 (human family IV phosphodiesterase); test: Whole cell screen: heat treatment viability of transformed yeast; conditions: 2 h at 30° C. then 50° C. for 30 min; for effect on viable cells of the culture after heat treatment (in words): concentrations up to 100 μM
Method: The following procedure was applied to the screening of whole transformed host cells. […] Aliquots of this culture (300 μl) were taken and mixed with 4.8 μl 10% DMSO or 10% DMSO containing an appropriate concentration of phosphodiesterase inhibitor. The treated cultures were then incubated for two hours at 30° C., after which two 3 μl aliquots were removed and transferred to an SC-leucine agar plate. Then, a 100 μl aliquot was removed from the treated cultures and transferred to a glass 12×75 mm test tube and the test tubes were incubated at 50° C. in a mineral oil-containing hot block for 30 min. The test tubes were removed from the hot block and placed at room temperature. Two 3 μl aliquots were removed and transferred to an SC-leucine plate. The agar plates were then incubated at 30° C. and examined at various times to evaluate growth.

[13] = molecular target: pL22 Met (pTM22-like) human cyclic AMP phosphodiesterase (Homo sapiens, UniProt Q13946); test: Phosphodiesterase activity of 10DAB yeast extract expressing human cDNA (kinetics, inhibitor sensitivity)
[14] = test system: 10DAB cells expressing the cDNA of pRATDPD; test: Heat shock sensitivity of yeast expressing rat DPD; type: cell-based, S. cerevisiae; conditions: 100 μM for 40 minutes, then 50° C. for 30 minutes
Method: 10DAB cells, which are phosphodiesterase deficient, are sensitive to heat shock. As already discussed, when these cells acquire the capacity to express the cDNA of pRATDPD, they become resistant to heat shock. 10DAB cells expressing the cDNA of pRATDPD were maintained in rich medium (YPD) for three days at stationary phase. […] Control cultures were not treated with any inhibitor. These cultures were then heat shocked in glass tubes at 50° C. […] for 30 minutes. One microliter of each culture was plated.

[15] = test system: cAMP phosphodiesterases encoded by cDNAs of pTM3, pTM72, pJC44x and pRATDPD; test: Biochemical analysis of cell lysates
[16] = test system: yeast containing RAS2^va119 expressing the rat DPD gene; test: Heat shock phenotype reversal screen; type: cell-based; conditions: resistant cells incubated in agent
Text: The second type of pharmacological screen is applicable even when the mammalian gene encodes a protein of undetermined function, and, thus, cannot be assayed by a biochemical activity. In this method, agents to be tested are applied or introduced directly to the genetically altered microbial host expressing the mammalian protein. Agents capable of inhibiting the mammalian gene or gene product are identified by their ability to reverse the phenotype originally corrected by expression of the mammalian protein in the altered host.
This procedure has been used for mammalian cDNAs encoding cyclic nucleotide phosphodiesterases and a yeast containing RAS2^va119 as the host strain. When the rat DPD gene is introduced into the heat shock sensitive host and expressed, the host strain becomes heat shock resistant. […] This same approach can be applied to assess other genes.

[17] = molecular target: T4, pRATDPD gene product (rat DPD cAMP phosphodiesterase) (Rattus norvegicus, UniProt P14646); conditions: cGMP 100 fold over substrate concentration (5 μM cAMP, cGMP up to 500 μM)
T4 sequence (P14646 220-736): T3 sequence (P14646 220-736)
Method: Yeast cells were grown at 30° C. for 36 hours in one liter cultures of synthetic media (SC-leucine). Cells were harvested and washed with buffer C (20 mM MES (pH 6.2), 0.1 mM MgCl2, 0.1 mM EGTA, 1 mM β-mercaptoethanol), were resuspended in 30 ml buffer C with 50 μl 1 M PMSF, and were disrupted with a French press. The extracts were centrifuged at 1,600×g for 10 min and the supernatants were spun at 18,000×g for 90 min (4° C.). The supernatant was assayed for phosphodiesterase activity as in Collicelli et al., supra. All the reactions contained Tris-HCl (pH7.5) (100 mM), cell extract (50 μg protein/ml), 5'-nucleotidase (Sigma, 20 ng/ml) and 10 mM Mg^2+ (unless otherwise stated) and the indicated cyclic nucleotide concentrations. […] The assay conditions were varied to ascertain the cation preferences of the enzyme and to determine the ability of calcium and calmodulin to stimulate its activity.

T2 sequence (Q07343 whole entry, the tested form may be a part): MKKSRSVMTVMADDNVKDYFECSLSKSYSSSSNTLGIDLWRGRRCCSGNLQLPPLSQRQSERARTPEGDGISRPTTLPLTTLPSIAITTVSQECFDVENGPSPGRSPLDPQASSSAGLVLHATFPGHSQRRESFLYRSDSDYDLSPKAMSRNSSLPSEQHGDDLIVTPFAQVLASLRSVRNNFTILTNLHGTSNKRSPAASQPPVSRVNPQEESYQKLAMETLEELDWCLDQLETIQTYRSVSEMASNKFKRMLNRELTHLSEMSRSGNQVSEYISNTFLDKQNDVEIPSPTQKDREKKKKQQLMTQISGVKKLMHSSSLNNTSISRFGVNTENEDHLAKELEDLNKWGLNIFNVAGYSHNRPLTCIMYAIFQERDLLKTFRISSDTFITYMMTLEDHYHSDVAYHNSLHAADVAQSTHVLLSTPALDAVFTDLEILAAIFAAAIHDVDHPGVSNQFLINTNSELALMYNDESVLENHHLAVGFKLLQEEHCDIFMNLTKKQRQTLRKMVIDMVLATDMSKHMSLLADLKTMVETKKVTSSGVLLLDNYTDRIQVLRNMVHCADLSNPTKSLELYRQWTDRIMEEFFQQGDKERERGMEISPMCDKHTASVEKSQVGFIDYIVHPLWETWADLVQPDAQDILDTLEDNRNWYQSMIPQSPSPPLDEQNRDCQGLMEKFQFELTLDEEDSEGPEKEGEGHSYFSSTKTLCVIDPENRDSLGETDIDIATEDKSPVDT
Chain of pL22 Met (pTM22-like) human cyclic AMP phosphodiesterase (Q13946 with tags, fused parts or gaps): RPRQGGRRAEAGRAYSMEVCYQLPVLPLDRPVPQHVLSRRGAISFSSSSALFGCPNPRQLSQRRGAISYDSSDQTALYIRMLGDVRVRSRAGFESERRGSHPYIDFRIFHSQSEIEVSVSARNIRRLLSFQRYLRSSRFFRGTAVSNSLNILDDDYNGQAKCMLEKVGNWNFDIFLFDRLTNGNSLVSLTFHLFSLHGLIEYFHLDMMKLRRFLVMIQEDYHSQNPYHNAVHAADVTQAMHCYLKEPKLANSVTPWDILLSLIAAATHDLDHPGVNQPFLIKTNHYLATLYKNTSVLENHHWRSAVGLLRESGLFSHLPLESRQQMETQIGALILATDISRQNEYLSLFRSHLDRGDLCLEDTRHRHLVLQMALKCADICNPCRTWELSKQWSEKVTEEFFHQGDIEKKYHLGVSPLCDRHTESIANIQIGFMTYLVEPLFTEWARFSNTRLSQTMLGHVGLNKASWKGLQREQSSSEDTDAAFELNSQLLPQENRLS
Chain of yeast PDE2 (P06776 whole entry): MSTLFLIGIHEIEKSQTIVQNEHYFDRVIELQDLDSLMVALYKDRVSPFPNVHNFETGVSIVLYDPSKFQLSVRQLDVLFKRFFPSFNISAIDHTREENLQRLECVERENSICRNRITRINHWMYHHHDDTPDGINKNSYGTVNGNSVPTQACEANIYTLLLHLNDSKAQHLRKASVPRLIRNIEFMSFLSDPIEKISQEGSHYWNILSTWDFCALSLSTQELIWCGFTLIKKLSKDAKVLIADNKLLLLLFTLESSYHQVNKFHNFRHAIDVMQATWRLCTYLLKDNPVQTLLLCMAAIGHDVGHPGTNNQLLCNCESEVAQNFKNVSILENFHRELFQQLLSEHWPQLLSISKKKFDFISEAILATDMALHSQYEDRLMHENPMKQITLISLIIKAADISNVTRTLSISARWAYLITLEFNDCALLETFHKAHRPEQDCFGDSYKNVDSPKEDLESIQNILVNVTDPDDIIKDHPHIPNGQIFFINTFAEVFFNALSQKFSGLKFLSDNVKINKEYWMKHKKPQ

For `COCc1nc2c([nH]1)c(=O)n(C)c(=O)n2CC(C)C` [8-Methoxy IBMX], which IC50 [1] is on record?
Its IC50 is 220 µM.

What about the IC50 ([2]; pADDR, 1 μM 3H cAMP, SD in parentheses, read-out: IC50) of the same compound?
The IC50 was 170 µM.

And the “IC50s fold higher than for their specific PDE classes” value [3]?
The value was 10 to 1000 fold.

What about the IC50 [4] of the same compound?
The IC50 was 120 µM.

What about the IC50 (DPDE4 (plasmid pADH72C) [5]) of the same compound?
The IC50 was 190 µM.

What about the IC50 [6] of the same compound?
Its IC50 is 220 µM.

What about the IC50 [7] of the same compound?
Its IC50 is 160 µM.

Which results are given for `CN(C(=O)CCCOc1ccc2[nH]c(=O)ccc2c1)C1CCCCC1` [Cilostamide]?
IC50 [1]: 55 µM; IC50 ([2]; read-out: IC50): > 1000 µM; IC50s fold higher than for their specific PDE classes [3]: 10 to 1000 fold; IC50 [4]: > 1000 µM; IC50 [6]: 140 µM; IC50 [7]: 90 µM

What does the source list for `CCCCn1c(=O)c2c(ncn2CC(C)=O)n(CCCC)c1=O` [Denbufylline]?
IC50 [1]: 0.2 µM; IC50 ([2]; read-out: IC50): 3 µM; IC50 [3]: 1 to 10 µM; IC50 [4]: 1.5 µM; IC50 [8]: 1 to 3 µM; IC50 [6]: 0.22 µM; IC50 [7]: 0.1 µM

`CC(C)Cn1c(=O)n(C)c(=O)c2[nH]cnc21` [IBMX] was tested. Which IC50 [1] did it give?
Its IC50 is 15 µM.

What about the IC50 ([2]; read-out: IC50) of the same compound?
Its IC50 is 12 µM.

What about the “inhibition of the human dunce-like PDEs (in words)” value ([3]; no detectable difference in IC50 between clones) of the same compound?
The value was “inhibited”.

And the IC50 [4]?
Its IC50 is 11 µM.

What about the inhibition at 250 µM (yeast PDE2) of the same compound?
The inhibition at 250 µM was 0%.

What about the IC50 (DPDE4 (plasmid pADH72C) [9]) of the same compound?
Its IC50 is 11 µM.

And the IC50 [6]?
The IC50 was 9.3 µM.

What about the inhibition at 250 µM [10] of the same compound?
Its inhibition at 250 µM is 87%.

What about the IC50 [7] of the same compound?
Its IC50 is 10 µM.

Which results are given for `Cc1[nH]c(=O)c(C#N)cc1-c1ccncc1` [Milrinone]?
EC50 [11]: 30 µM; IC50 ([2]; read-out: IC50): > 1000 µM; IC50 [4]: > 1000 µM; effect on viable cells of the culture after heat treatment (in words) [12]: no observable effect; EC50 [13]: 30 µM; IC50 [6]: 59 µM; IC50 [7]: 16 µM

Which results are given for `CCCCOc1cc(CC2CNC(=O)N2)ccc1OC` (centres unmarked) [RO 20-1724]?
EC50 [11]: 3 µM; IC50 [3]: 1 to 10 µM; inhibition at 100 µM (yeast PDE2): 3%; EC50 [13]: > 300 µM; IC50 [8]: 1000 µM; inhibition at 0.1 µM [10]: 35%; inhibition at 1 µM [10]: 52%; inhibition at 10 µM [10]: 79%; inhibition at 100 µM [10]: 92%; inhibition of rat DPD enzymatic activity (in words) ([10]; listed as R020 1724): readily inhibited; also recorded: most effective inhibitors

Which results are given for `COc1ccc(C2CNC(=O)C2)cc1OC1CCCC1` (centres unmarked) [Rolipram]?
IC50 [1]: […]; EC50 [11]: 0.4 µM; IC50 [2]: > 740 µM; IC50 [3]: 0.2 to 0.5 µM; IC50 [4]: > 1000 µM; cells remaining viable out of approximately 150,000 cells ([12]; 100 μM): less than 10 cells; effect on viable cells of the culture after heat treatment (in words) [12]: reduced the number of viable cells; sensitivity to heat shock (in words) [14]: much more sensitive to heat shock; EC50 [13]: > 300 µM; sensitivity of the cAMP phosphodiesterases to the agent (in words) [15]: sensitive; IC50 [8]: 1000 µM; IC50 [6]: 0.5 µM; heat shock phenotype (in words) [16]: become heat shock sensitive again; inhibition of rat DPD enzymatic activity (in words) [10]: readily inhibited; also recorded: most effective inhibitors; IC50 [7]: 0.18 µM

With `Cn1c(=O)c2[nH]cnc2n(C)c1=O` [Theophylline] as the compound, how does the EC50 [11] read?
Its EC50 is 300 µM.

What does the source list for `CCCOc1ccccc1-c1nc2nn[nH]c2c(=O)[nH]1` [Zaprinast]?
IC50 [1]: 90 µM; IC50 ([2]; read-out: IC50): 58 µM; IC50s fold higher than for their specific PDE classes [3]: 10 to 1000 fold; IC50 [4]: 130 µM; IC50 [6]: 120 µM; IC50 [7]: 88 µM

Which IC50 [1] does the source give for `Nc1nc2c(ncn2[C@@H]2O[C@@H]3COP(=O)(O)O[C@H]3[C@H]2O)c(=O)[nH]1` [cGMP] here?
The IC50 was over 1000 µM.

And the EC50 [11]?
The EC50 was over 300 µM.

And the IC50 ([2]; read-out: IC50)?
The IC50 was over 1000 µM.

What about the “inhibition of cAMP phosphodiesterase activity by cGMP” value [17] of the same compound?
The value was “did not inhibit”.

What about the IC50 [4] of the same compound?
Its IC50 is over 1000 µM.

What about the IC50 (DPDE4 (plasmid pADH72C) [9]) of the same compound?
Its IC50 is over 1000 µM.

And the EC50 [13]?
Its EC50 is over 300 µM.

And the IC50 [6]?
Its IC50 is over 1000 µM.

What about the IC50 [7] of the same compound?
Its IC50 is over 1000 µM.

Source: patent US6069240A, “Cloning by complementation and related processes” (priority 1998, dated 2000)
